Data from EP4741394A1, “CRYSTAL FORM OF [1,2,4]TRIAZOLO[4,3-B]PYRIDAZINE COMPOUND, AND PREPARATION METHOD THEREFOR AND USE THEREOF” (Beijing Pearl Biotechnology Limited Liability Company, priority 2023, dated 2025).

Columns and labels:
Format in all cases: physicochemical
[1] = Stability of crystal forms in aqueous medium at 37 °C (XRPD of solids from 5 mg/mL suspension); settings: for XRPD: 37 °C; for crystal form transformation: 24 hours
Experimental: (§1) The crystal form of the samples was analyzed using a Bruker D8 ADVANCE or Bruker D8 Focus X-ray powder diffractometer. The samples were scanned with the 2θ scanning angle of 3° to 42°, the scanning step of 0.02°, and the scanning time of 0.05 s or 0.1 s or 0.2 s per step. The voltage and current for fluorescent tubes were 40 kV and 40 mA, respectively. During sample preparation, an appropriate amount of samples were placed on a sample tray and flattened with a glass sheet or other tools to ensure a smooth and flat surface.
Table 2: Results of Stability of Crystal Forms A and B in Aqueous Medium at 37 °C

[2] = Hygroscopic weight gain test
Experimental: On Days 0, 20 and 25, the samples were set out respectively, with the temperature and humidity conditions controlled to 25 ± 2 °C/75 ± 5% RH and 25 ± 2 °C/90 ± 5% RH. All samples were sampled and weighed on Day 30 to calculate the hygroscopic weight gain (%).

[3] = Thermal and moisture stability of crystal forms (HPLC and XRPD after storage in a stability test chamber); settings: for degradation: under the test conditions of Table 1; for crystal form change (overlay of XRPD forms): under the test conditions, FIGS. 15 and 16
Experimental: as §1
Solubility and stability tests were carried out using Agilient 1260 HPLC under the following conditions: column: ZORBAX Eclipse Plus Cl8 4.6* 100 mm 3.5-Micron; flow rate: 1 mL/min; column temperature: 35 °C; injection volume: 10 µL; mobile phases: mobile phase A: 0.02 mol/L potassium dihydrogen phosphate, and mobile phase B: ACN; running time: 40 min; detector: UV at 210 nm; diluent: ACN; and injection concentration: 0.2 mg/mL.
A certain amount of samples of the crystal forms A (prepared according to the preparation method 1 of Example 1) and B (prepared according to the method of Example 2) of the compound of formula (I) were placed into a stability test chamber, and taken out for HPLC and XRPD testing after a certain period of time.
Test conditions were as follows: under open conditions at 25 °C with 60% RH (25 °C/60% RH) or at 40 °C with 75% RH (40 °C/75% RH), HPLC and XRPD was characterized after one week, two weeks, 1 month and 2 months respectively; and HPLC and XRPD were characterized under closed conditions at 80 °C for one day and under closed conditions with lighting for 10 days, respectively. Table 1: Results of Stability of Crystal Forms A and B

[4] = Solid dispersion by hot-melt extrusion with Povidone K30: content of related substance D1 and of active ingredient; settings: for Content of related substance D1 in starting material: before hot-melt extrusion, Not detected: detected content < 0.0045%; for Content of active pharmaceutical ingredient in sample / Content of related substance D1 in sample: solid dispersion, Povidone K30 1:3, hot-melt extrusion up to 200 °C
From the text: Under the same hot-melt extrusion conditions, the contents of related substance D1 in the solid dispersions prepared from the crystal forms A (prepared according to the preparation method 1 of Example 1) and B (prepared according to the preparation method of Example 2) were investigated, respectively. The structure of the related substance D1 is represented by formula (II). [drawing 4]
Preparation of solid dispersion by hot-melt extrusion: the active pharmaceutical ingredient of crystal form A (prepared according to the preparation method 1 of Example 1) or B (prepared according to the method of Example 2) and Povidone K30 were weighed respectively and then evenly mixed at a ratio of 1:3; after the temperature of each temperature zone for hot-melt […] reached 130 °C, 150 °C, 180 °C, 195 °C, 200 °C, 200 °C, 200 °C, and 200 °C and balanced for 15 min, the mixture was added to the hopper of an extruder; and the resulting solids were collected and left to cool at room temperature, and then tested for the content of the related substance D1, respectively. Table 3: Results of Prepared Samples of Crystal Forms A and B
Not detected: the detected content of related substance D1 was < 0.0045%.

[5] = Impact of drying conditions on crystal form stability (XRPD); settings: wet samples dried at 40 °C or 60 °C under vacuum, or under nitrogen at room temperature or 40 °C; 0 h to 48 h
Experimental: as §1

[6] = FeSSIF, 24 h (first FeSSIF line)
[7] = FeSSIF, 24 h (second FeSSIF line)

For `Cn1cc2cc(C(F)(F)c3nnc4ccc(-c5cnn(C6CC6)c5)nn34)c(F)cc2n1` [Crystal form B], the XRPD ([1]; FaSSIF, 24 h) was “Unchanged”, the XRPD [1, 6] was “Unchanged” and the XRPD [1, 7] was “Unchanged”. For the same molecule, the XRPD ([1]; Water, 24 h) was “Unchanged”, the crystal form change ([1]; all media) was “no change” and the XRPD ([1]; pH 1.2 buffer, 24 h) was “Unchanged”. The XRPD ([1]; pH 3.0 buffer, 24 h) was “Unchanged”, the XRPD ([1]; pH 4.5 buffer, 24 h) was “Unchanged” and the XRPD ([1]; pH 6.8 buffer, 24 h) was “Unchanged”. For the same molecule, the XRPD ([1]; pH 7.4 buffer, 24 h) was “Unchanged”, the “Hygroscopic weight gain (%)” value ([2]; 25 + 2°C/90 + 5% RH, 5 days) was 1% and the “Hygroscopic weight gain (%)” value ([2]; 25 + 2°C/90 + 5% RH, 10 days) was 1%. The “Hygroscopic weight gain (%)” value ([2]; 25 + 2°C/90 + 5% RH, 30 days) was 1%, the “Hygroscopic weight gain (%)” value ([2]; 25 ± 2°C/75 + 5% RH, 5 days) was 1% and the “Hygroscopic weight gain (%)” value ([2]; 25 ± 2°C/75 + 5% RH, 10 days) was 1%. For the same molecule, the “Hygroscopic weight gain (%)” value ([2]; 25 ± 2°C/75 + 5% RH, 30 days) was 1%, the hygroscopic weight gain ([2]; high humidity conditions for 5 days, 10 days and 30 days (text summary; less than 2%, slight hygroscopicity)) was “approximately 1%” and the “Degradation (%)” value ([3]; 25 °C/60% RH, open, 1 month) was 0%. For the same molecule, the “Purity (%)” value ([3]; 25 °C/60% RH, open, 1 month) was 99.98%, the XRPD ([3]; 25 °C/60% RH, open, 1 month) was “Unchanged” and the “Degradation (%)” value ([3]; 25 °C/60% RH, open, 1 week) was 0%. The “Purity (%)” value ([3]; 25 °C/60% RH, open, 1 week) was 99.98%, the XRPD ([3]; 25 °C/60% RH, open, 1 week) was “Unchanged” and the “Degradation (%)” value ([3]; 25 °C/60% RH, open, 2 months) was 0.01%. The “Purity (%)” value ([3]; 25 °C/60% RH, open, 2 months) was 99.97%, the XRPD ([3]; 25 °C/60% RH, open, 2 months) was “Unchanged” and the “Degradation (%)” value ([3]; 25 °C/60% RH, open, 2 weeks) was 0%. The “Purity (%)” value ([3]; 25 °C/60% RH, open, 2 weeks) was 99.98%, the XRPD ([3]; 25 °C/60% RH, open, 2 weeks) was “Unchanged” and the “Degradation (%)” value ([3]; 40 °C/75% RH, open, 1 month) was 0%. For the same molecule, the “Purity (%)” value ([3]; 40 °C/75% RH, open, 1 month) was 99.98%, the XRPD ([3]; 40 °C/75% RH, open, 1 month) was “Unchanged” and the “Degradation (%)” value ([3]; 40 °C/75% RH, open, 1 week) was 0.01%. For the same molecule, the “Purity (%)” value ([3]; 40 °C/75% RH, open, 1 week) was 99.97%, the XRPD ([3]; 40 °C/75% RH, open, 1 week) was “Unchanged” and the “Degradation (%)” value ([3]; 40 °C/75% RH, open, 2 months) was 0.02%. For the same molecule, the “Purity (%)” value ([3]; 40 °C/75% RH, open, 2 months) was 99.96%, the XRPD ([3]; 40 °C/75% RH, open, 2 months) was “Unchanged” and the “Degradation (%)” value ([3]; 40 °C/75% RH, open, 2 weeks) was -0.01%. For the same molecule, the “Purity (%)” value ([3]; 40 °C/75% RH, open, 2 weeks) was 99.99%, the XRPD ([3]; 40 °C/75% RH, open, 2 weeks) was “Unchanged” and the “Degradation (%)” value ([3]; 80 °C, closed, 1 d) was 0.01%. The “Purity (%)” value ([3]; 80 °C, closed, 1 d) was 99.97%, the XRPD ([3]; 80 °C, closed, 1 d) was “Unchanged” and the “Degradation (%)” value ([3]; Lighting control, 10 d) was 0%. For the same molecule, the “Purity (%)” value ([3]; Lighting control, 10 d) was 99.98%, the XRPD ([3]; Lighting control, 10 d) was “Unchanged” and the “Degradation (%)” value ([3]; Lighting, closed, 10 d) was 0%. The “Purity (%)” value ([3]; Lighting, closed, 10 d) was 99.98%, the XRPD ([3]; Lighting, closed, 10 d) was “Unchanged” and the “Purity (%)” value ([3]; Start) was 99.98%. The degradation [3] was “almost no degradation”, the “crystal form change (overlay of XRPD forms)” value [3] was “have not changed” and the “Content of related substance D1 in starting material” value [4] was “Not detected”. For the same molecule, the “Content of active pharmaceutical ingredient in sample” value [4] was 101.8%, the “Content of related substance D1 in sample” value [4] was 0.05% and the “crystal form during drying (XRPD)” value [5] was “no other crystal forms appear during drying”.

With `Cn1cc2cc(C(F)(F)c3nnc4ccc(-c5cnn(C6CC6)c5)nn34)c(F)cc2n1` [Crystal form A] the XRPD ([1]; FaSSIF, 24 h) was “Unchanged”, the XRPD [1, 6] was “Unchanged” and the XRPD [1, 7] was “Unchanged”. For the same molecule, the XRPD ([1]; Water, 24 h) was “Crystal form B”, the crystal form transformation ([1]; buffers of different pHs and water) was “transformed to the crystal form B” and the XRPD ([1]; pH 1.2 buffer, 24 h) was “Crystal form B”. The XRPD ([1]; pH 3.0 buffer, 24 h) was “Crystal form B”, the XRPD ([1]; pH 4.5 buffer, 24 h) was “Crystal form B” and the XRPD ([1]; pH 6.8 buffer, 24 h) was “Crystal form B”. For the same molecule, the XRPD ([1]; pH 7.4 buffer, 24 h) was “Crystal form B”, the crystal form transformation ([1]; simulated biological media) was “without crystal form transformation” and the “Degradation (%)” value ([3]; 25 °C/60% RH, open, 1 month) was 0%. For the same molecule, the “Purity (%)” value ([3]; 25 °C/60% RH, open, 1 month) was 99.98%, the XRPD ([3]; 25 °C/60% RH, open, 1 month) was “Unchanged” and the “Degradation (%)” value ([3]; 25 °C/60% RH, open, 1 week) was 0%. The “Purity (%)” value ([3]; 25 °C/60% RH, open, 1 week) was 99.98%, the XRPD ([3]; 25 °C/60% RH, open, 1 week) was “Unchanged” and the “Degradation (%)” value ([3]; 25 °C/60% RH, open, 2 months) was 0%. The “Purity (%)” value ([3]; 25 °C/60% RH, open, 2 months) was 99.98%, the XRPD ([3]; 25 °C/60% RH, open, 2 months) was “Unchanged” and the “Degradation (%)” value ([3]; 25 °C/60% RH, open, 2 weeks) was 0%. For the same molecule, the “Purity (%)” value ([3]; 25 °C/60% RH, open, 2 weeks) was 99.98%, the XRPD ([3]; 25 °C/60% RH, open, 2 weeks) was “Unchanged” and the “Degradation (%)” value ([3]; 40 °C/75% RH, open, 1 month) was 0%. The “Purity (%)” value ([3]; 40 °C/75% RH, open, 1 month) was 99.98%, the XRPD ([3]; 40 °C/75% RH, open, 1 month) was “Unchanged” and the “Degradation (%)” value ([3]; 40 °C/75% RH, open, 1 week) was 0.01%. The “Purity (%)” value ([3]; 40 °C/75% RH, open, 1 week) was 99.97%, the XRPD ([3]; 40 °C/75% RH, open, 1 week) was “Unchanged” and the “Degradation (%)” value ([3]; 40 °C/75% RH, open, 2 months) was 0.01%. For the same molecule, the “Purity (%)” value ([3]; 40 °C/75% RH, open, 2 months) was 99.97%, the XRPD ([3]; 40 °C/75% RH, open, 2 months) was “Unchanged” and the “Degradation (%)” value ([3]; 40 °C/75% RH, open, 2 weeks) was 0%. The “Purity (%)” value ([3]; 40 °C/75% RH, open, 2 weeks) was 99.98%, the XRPD ([3]; 40 °C/75% RH, open, 2 weeks) was “Unchanged” and the “Degradation (%)” value ([3]; 80 °C, closed, 1 d) was 0%. The “Purity (%)” value ([3]; 80 °C, closed, 1 d) was 99.98%, the XRPD ([3]; 80 °C, closed, 1 d) was “Unchanged” and the “Degradation (%)” value ([3]; Lighting control, 10 d) was 0%. For the same molecule, the “Purity (%)” value ([3]; Lighting control, 10 d) was 99.98%, the XRPD ([3]; Lighting control, 10 d) was “Unchanged” and the “Degradation (%)” value ([3]; Lighting, closed, 10 d) was 0%. The “Purity (%)” value ([3]; Lighting, closed, 10 d) was 99.98%, the XRPD ([3]; Lighting, closed, 10 d) was “Unchanged” and the “Purity (%)” value ([3]; Start) was 99.98%. For the same molecule, the degradation [3] was “almost no degradation”, the “crystal form change (overlay of XRPD forms)” value [3] was “have not changed” and the “Content of related substance D1 in starting material” value [4] was “Not detected”. For the same molecule, the “Content of active pharmaceutical ingredient in sample” value [4] was 101.6% and the “Content of related substance D1 in sample” value [4] was 0.08%.
